In brackets after ≈: the same amount, converted by molar mass. Read-outs that look alike come from different tables or passages of the source. Values belong to the compound of their own block, whether it stands above or below them. The star is where a group is joined. Decanoyl = CCCCCCCCCC(=O)*; CH2Cl = ClC*
Key:
[1] = test system: mouse embryo fibroblasts Balb/c 3T3 clone 31; test: In vitro 3T3 NRU phototoxicity test; type: cell-based; conditions: BALB/c3T3, light or radiation study, read-out: Cl50 (the source's name)
Excerpt: The principle of the test is the comparison of the cytotoxicity of the protein hydrolysate in accordance with Example 1 in the presence and in the absence of a non-cytotoxic dose of UVA, on cells under culture. […] The cells used were mouse embryo fibroblasts from the Balb/c 3T3 clone 31 (ATCC-CCL163) line. The positive control was a solution of chlorpromazine (CAS number: 69-09-0). The negative control was a diluent for the test and reference extract (buffered saline solution+/−1% solvent). […] The fibroblasts were trypsinized and two 96-well culture plates were inoculated in an amount of 100 μL of a 2×10^5 cells/mL (i.e. 2×10^6 cells per well) cell suspension in complete culture medium. The inoculated plates were incubated in an oven for 24 hours at 37° C., 5% CO2. At the end of the incubation, semi-confluence of the cell mat was verified. […] The spectral irradiation of the test device was measured in the wavelength range 250 to 700 nanometers with a calibrated spectroradiometer.
One of the 2 plates was irradiated with its cover at ambient temperature, and the other plate was protected from UVA and stored at ambient temperature for the irradiation period. […] The next day, the cell viability (growth, morphology, integrity of the monolayer) was evaluated by observations using a phase contrast microscope. […] The absorbances were measured at 450 nm.

[2] = test system: DKK-1; test: DKK-1 synthesis and release by normal human fibroblasts, ELISA, 48 h; type: cell-based; conditions: 100 nM
Protocol: The aim of this study is to evaluate the effect of the peregrina protein hydrolysate on the synthesis and release of DKK-1 in a model compound of normal human fibroblasts in a monolayer culture.
Protocol: Human fibroblast cells were obtained from a donor. In order to carry out the experiments, the fibroblasts were cultured in a monolayer to confluence. 100 nM dexamethasone was used as a reference inducer for the synthesis and release of DKK-1. The […] were incubated for 48 hours in the absence (control) or in the presence of the reference product or of the test product: “peregrina protein hydrolysate”: 0.01%; 0.1% and 0.5% (v/v).
At the end of the incubation, the incubation media were removed in order to carry out the DKK-1 liberation method. […]
At the end of the incubation period of 48 hours, the DKK-1 liberated into the incubation medium was quantified with the aid of a sensitive and specific ELISA kit.
At the end of the incubation period, the proteins contained in the cell lysates were quantified with the aid of a spectrocolorimetric method (Bradford method). […]
The level of significance between the “control” and the “reference product” was evaluated with the aid of a Student test (p<0.05).
The level of significance between the “Control” and the “test product” was evaluated by a single factor analysis of variance (one-way ANOVA) followed by a Holm-Sidak test (p<0.05).

[3] = molecular target: recombinant human furin (Homo sapiens, UniProt P09958); test: Furin convertase activity, cleavage of fluorescent substrate; type: biochemical; conditions: 100 nM
Protocol: Protocol: The study was carried out using a recombinant human furin, which catalyzes cleavage of a specific fluorescent reference substrate.
100 nM decanoyl-Arg-Val-Lys-Arg-CMK was used as a reference inhibitor for the activity of furin.
The furin was pre-incubated for 10 minutes at ambient temperature in the absence (control) or in the presence of a reference product, or of increasing concentrations of the test compound:
“Peregrina protein hydrolysate”; 0.02; 0.2 and 2% (v/v).
At the end of the pre-incubation step, a furin substrate was added and the experimental conditions were incubated once again at ambient temperature away from light for 5 minutes. All of the experiments were carried out in triplicate. […]
Cleavage of the fluorescent furin substrate was monitored for 5 minutes after addition of the substrate by reading the fluorescence at 485 nm/535 nm. […]
Evaluation protocol: Cleavage of the fluorescent furin substrate was monitored for 5 minutes after addition of the substrate by recording the fluorescence at 485 nm/535 nm. […]. […] The statistical significance of the difference observed between the “Control” and “Reference product” groups was evaluated by a Student test (p<0.001). The statistical significance of the difference observed between the “Control” and “Test compound” groups was evaluated by a one-way ANOVA, followed by a Holm-Sidak test (p<0.05). […]

Chain of recombinant human furin (P09958 108-794): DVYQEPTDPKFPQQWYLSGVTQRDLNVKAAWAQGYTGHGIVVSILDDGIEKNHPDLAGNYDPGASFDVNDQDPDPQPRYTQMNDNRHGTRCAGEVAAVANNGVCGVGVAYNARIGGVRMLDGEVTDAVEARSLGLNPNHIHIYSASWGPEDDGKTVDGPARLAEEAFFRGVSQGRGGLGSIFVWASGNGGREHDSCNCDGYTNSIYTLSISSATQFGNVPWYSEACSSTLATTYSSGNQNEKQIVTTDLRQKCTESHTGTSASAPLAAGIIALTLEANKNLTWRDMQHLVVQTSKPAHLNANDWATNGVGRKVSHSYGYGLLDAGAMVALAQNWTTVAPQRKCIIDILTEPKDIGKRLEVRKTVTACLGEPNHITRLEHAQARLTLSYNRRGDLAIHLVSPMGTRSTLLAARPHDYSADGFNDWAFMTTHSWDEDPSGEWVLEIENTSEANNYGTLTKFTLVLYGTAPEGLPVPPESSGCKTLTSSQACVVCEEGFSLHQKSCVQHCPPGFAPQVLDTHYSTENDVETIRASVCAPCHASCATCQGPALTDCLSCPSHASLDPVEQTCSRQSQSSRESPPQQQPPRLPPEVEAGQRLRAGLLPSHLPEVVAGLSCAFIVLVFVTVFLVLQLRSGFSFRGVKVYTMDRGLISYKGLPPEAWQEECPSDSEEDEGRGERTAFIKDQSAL

Compound: CN(C)CCCN1c2ccccc2Sc2ccc(Cl)cc21 [Chlorpromazine, chlorpromazine]
- IC50 ([1]; in the absence of UVA): 7 to 90 µg/mL (≈ 22 to 282 µM)
- IC50 ([1]; in the presence of UVA): 0.1 to 2 µg/mL

Compound: C[C@@H]1C[C@H]2[C@@H]3CCC4=CC(=O)C=C[C@]4(C)[C@@]3(F)[C@@H](O)C[C@]2(C)[C@@]1(O)C(=O)CO [Dexamethasone, dexamethasone]
- Increase of the DKK-1 liberated compared with the Control [2]: 181.8%

- Inhibition of the activity of furin [3]: 97.9%
Compound: decanoyl-Arg-Val-Lys-Arg-CMK (Decanoyl-RVKR-CH2Cl)

Source: patent publication US20240325477A1, “PROTEIN HYDROLYSATE OF MORINGA PEREGRINA SEED CAKE FOR ITS APPLICATION AS A MEDICAMENT, PROCESS FOR OBTAINING SAME AND PHARMACEUTICAL AND DERMATOLOGICAL COMPOSITIONS” (AGENCE FRANCAISE POUR LE DEVELOPPEMENT D'AL ULA, priority 2020, published 2024)
